Experimental data as given in patent US20050159345A1 (Boehringer Ingelheim International GmbH, priority 2002, published 2005).

Key:
[1] = biological target: T1, HCV 2b NS3-NS4A heterodimer protein (UniProt P26661); test: In vitro HCV NS3 protease assay (fluorogenic depsipeptide), genotype 2b; type: biochemical, HCV genotype 2b; conditions: read-out: IC50 HCV-2b; HCV 2b NS3-NS4A protease
T1 construct: fused on or other part: 28 extra N-terminal residues with a hexahistidine tag and an rTEV cleavage site
T1 sequence (P26661 1031-1661): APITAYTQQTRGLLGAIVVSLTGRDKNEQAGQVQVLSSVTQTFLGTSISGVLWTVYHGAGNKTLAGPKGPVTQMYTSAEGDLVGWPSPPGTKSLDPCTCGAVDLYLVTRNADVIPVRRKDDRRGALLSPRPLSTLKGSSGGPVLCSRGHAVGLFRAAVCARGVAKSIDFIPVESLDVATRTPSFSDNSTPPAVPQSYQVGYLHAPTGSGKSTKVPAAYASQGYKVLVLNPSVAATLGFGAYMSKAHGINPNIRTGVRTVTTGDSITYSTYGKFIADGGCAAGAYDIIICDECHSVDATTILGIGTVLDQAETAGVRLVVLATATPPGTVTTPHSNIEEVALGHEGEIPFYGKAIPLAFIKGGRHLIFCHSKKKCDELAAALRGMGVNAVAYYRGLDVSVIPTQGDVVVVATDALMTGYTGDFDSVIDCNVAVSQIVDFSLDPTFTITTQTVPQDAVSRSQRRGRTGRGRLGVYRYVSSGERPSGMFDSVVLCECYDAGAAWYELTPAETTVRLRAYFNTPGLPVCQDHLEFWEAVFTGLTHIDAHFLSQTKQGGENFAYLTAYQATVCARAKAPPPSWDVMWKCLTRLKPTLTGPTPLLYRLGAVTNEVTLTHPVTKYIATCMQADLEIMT
Description: The NS3-NS4 protease genes of HCV genotypes 2b and 3a were amplified from RNA isolated from clinical samples of HCV-infected patients obtained from Dr. G. Steinmann (Germany) using RT-PCR. The primers used for the RT-PCR were 5′[…]3′ (SEQ ID No. 6) as the forward and 5′[…]3′ (SEQ ID No.7) as the reverse primer for the NS3-NS4A of HCV genotype 2b and; 5′[…]3′ (SEQ ID No. 8) as the forward and 5′[…]3′ (SEQ ID No. 9) as the reverse primer for HCV genotype 3a. Each primer contained a unique restriction site for subcloning the fragment in the bacterial expression vector pET11a. The cloning into the vector generated a recombinant fusion protein containing an additional N-terminal 28 residues that comprised a hexahistidine tag and a rTEV protease cleavage site. The recombinant plasmids were used to transform the bacterial strain BL21 DE3 pLysS for protein expression and recombinant protein expression was induced by the addition of IPTG. Following expression, the cells were collected by centrifugation at 4° C. and the cell pellet lysed in a buffer containing 50 mM sodium phosphate, 0.5M NaCl, 40% glycerol, 1.5% NP-40, 0.5% Triton X-100 and the soluble protein fraction was passed through a 5ml HiTrap chelating affinity column as described above. A poly(U)-Sepharose purification step can optionally be conducted in order to remove degradation products and contaminants. […]
The fluorescence was monitored using the BMG POLARstar Galaxy 96-well plate reader with an excitation filter of 320 nm, and an emission filter of 405 nm. The level of inhibition (% inhibition) of each well containing test compound was calculated with the following equation (FU=fluorescence unit): [formula]
The calculated % inhibition values were then used to determine IC50, slope factor (n) and maximum inhibition (Imax) by the non-linear regression routine NLIN procedure of SAS using the following equation: [formula] […]

[2] = biological target: T2, GBV-B NS3-NS4A heterodimer protein (Hepatitis GB virus B, UniProt Q69422); test: In vitro GBV-B NS3 protease assay (HPLC); type: biochemical
T2 construct: The full length GBV-B NS3/NS4A protease gene was isolated from infected tamarin serum; made in house; host or cells: E. coli BL21 DE3 pLysS (pET-29)
T2 sequence (Q69422 1565-1615): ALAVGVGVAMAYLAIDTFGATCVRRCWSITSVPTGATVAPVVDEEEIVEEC
T2 sequence (Q69422 941-1564): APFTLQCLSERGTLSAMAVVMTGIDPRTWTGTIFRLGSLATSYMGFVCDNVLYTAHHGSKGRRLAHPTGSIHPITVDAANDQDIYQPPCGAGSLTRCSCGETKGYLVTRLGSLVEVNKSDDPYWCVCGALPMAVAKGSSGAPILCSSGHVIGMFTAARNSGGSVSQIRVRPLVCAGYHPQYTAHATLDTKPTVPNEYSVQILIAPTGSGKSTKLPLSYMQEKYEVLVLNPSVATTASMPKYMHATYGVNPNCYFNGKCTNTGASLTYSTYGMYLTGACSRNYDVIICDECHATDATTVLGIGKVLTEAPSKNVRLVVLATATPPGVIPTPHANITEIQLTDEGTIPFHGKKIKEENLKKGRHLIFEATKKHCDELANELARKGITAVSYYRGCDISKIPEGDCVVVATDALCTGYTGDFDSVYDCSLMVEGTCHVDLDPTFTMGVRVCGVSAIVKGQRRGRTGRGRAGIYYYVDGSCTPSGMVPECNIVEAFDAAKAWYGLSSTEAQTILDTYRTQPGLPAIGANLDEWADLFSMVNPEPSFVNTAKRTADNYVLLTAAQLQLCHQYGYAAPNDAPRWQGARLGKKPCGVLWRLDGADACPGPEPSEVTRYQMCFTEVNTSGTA
Description: The depsipeptide substrate used to assess inhibition of the protease activity of GBV-B NS3-NS4A heterodimer protein was Ac-DED(EDANS)EE-Abu[C(O)—O] ASK(DABCYL)-NH2 (SEQ ID No. 16) This substrate is cleaved between the aminobutyric (Abu) and the alanine residues and products of the reaction were analyzed by HPLC. The protease activity was assayed in 50 mM Tris-HCl;, pH 8.0, 0.25M sodium citrate, 0.01 % n-dodecyl-β-D-maltoside, 1 mM TCEP. The assay was performed in a Microfluor®2 White U-Bottom Microtiter® plate. 5 μM of the substrate and various concentrations of the test compounds were incubated with 0.4 nM of GBV-B NS3-NS4A heterodimer protein for 2 hours at 23° C. under gentle agitation. […] The reaction was terminated by the addition of a 1M 2-[N-morpholino]ethanesulfonic acid solution at pH 5.8. For quantification, the cleavage products and the substrate were separated by HPLC on a Perkin-Elmer® 3×3CR C8 column. The separation was accomplished by initially eluting at 3.5 mL/min with an aqueous solution containing 0.05% phosphoric acid and 3 mM SDS. A 0 to 45% acetonitrile linear gradient in 0.05% phosphoric acid was then applied for 10 minutes. The absorbance was monitored at 210 nm.

`COc1ccc2c(O[C@@H]3C[C@H]4C(=O)N[C@]5(C(=O)O)CC5/C=C\CCCCC[C@H](NC(=O)OC(C)(C)C)C(=O)N4C3)cc(-c3csc(NC(C)=O)n3)nc2c1` (stereo partly drawn) [III] gave an IC50 [1] of 0.51 µM and an IC50 [2] of 31 µM.

Compound `COc1ccc2c(O[C@@H]3C[C@H]4C(=O)N[C@]5(C(=O)O)CC5/C=C\CCCCC[C@H](NC(=O)OC(C)(C)C)C(=O)N4C3)cc(-c3ccccc3)nc2c1` (stereo partly drawn) [II] has an IC50 [1] of 1 µM and an IC50 [2] of 36.5 µM.

With `COc1ccc2c(O[C@@H]3C[C@H]4C(=O)N[C@]5(C(=O)O)CC5/C=C\CCCCC[C@H](NC(=O)OC5CCCC5)C(=O)N4C3)cc(-c3csc(NC(C)C)n3)nc2c1` (stereo partly drawn) [IV] the IC50 [1] was 0.26 µM and the IC50 [2] was 16 µM.
